One test has as its target HDAC6 human recombinant (Homo sapiens (Human), UniProt Q9UBN7). As to the kind of experiment: HDAC enzyme activity inhibition (in vitro), HDAC6 assay. The class given is biochemical. As to conditions: samples at 0.1, 1, 10, 100 and 1000 nM; 37° C. 60 minutes; fluorescence Ex 390, Em 460.
For another test, the target named is HDAC1 (Homo sapiens (Human), UniProt Q13547). Kind of test: HDAC enzyme activity inhibition (in vitro), HDAC1 Fluorimetric Drug Discovery Assay Kit. As to conditions: samples at 100, 1000 and 10000 nM; 37° C. 60 minutes; fluorescence Ex 390, Em 460. The class given is biochemical.

The structures appear in SMILES notation.

Chain of HDAC1 (Q13547 whole entry): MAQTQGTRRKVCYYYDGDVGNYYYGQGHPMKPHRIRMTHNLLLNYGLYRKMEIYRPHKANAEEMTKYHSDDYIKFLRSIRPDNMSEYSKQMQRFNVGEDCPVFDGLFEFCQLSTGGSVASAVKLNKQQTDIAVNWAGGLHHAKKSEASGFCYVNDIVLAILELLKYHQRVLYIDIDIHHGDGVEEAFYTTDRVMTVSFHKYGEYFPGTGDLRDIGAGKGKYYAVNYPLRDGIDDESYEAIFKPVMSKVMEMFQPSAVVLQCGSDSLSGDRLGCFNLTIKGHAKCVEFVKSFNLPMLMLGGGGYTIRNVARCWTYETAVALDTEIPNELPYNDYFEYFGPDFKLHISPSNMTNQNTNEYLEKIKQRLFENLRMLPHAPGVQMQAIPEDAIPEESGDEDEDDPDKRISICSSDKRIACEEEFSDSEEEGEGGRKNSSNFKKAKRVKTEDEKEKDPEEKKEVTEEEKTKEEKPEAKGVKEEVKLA
Chain of HDAC6 human recombinant (Q9UBN7 whole entry): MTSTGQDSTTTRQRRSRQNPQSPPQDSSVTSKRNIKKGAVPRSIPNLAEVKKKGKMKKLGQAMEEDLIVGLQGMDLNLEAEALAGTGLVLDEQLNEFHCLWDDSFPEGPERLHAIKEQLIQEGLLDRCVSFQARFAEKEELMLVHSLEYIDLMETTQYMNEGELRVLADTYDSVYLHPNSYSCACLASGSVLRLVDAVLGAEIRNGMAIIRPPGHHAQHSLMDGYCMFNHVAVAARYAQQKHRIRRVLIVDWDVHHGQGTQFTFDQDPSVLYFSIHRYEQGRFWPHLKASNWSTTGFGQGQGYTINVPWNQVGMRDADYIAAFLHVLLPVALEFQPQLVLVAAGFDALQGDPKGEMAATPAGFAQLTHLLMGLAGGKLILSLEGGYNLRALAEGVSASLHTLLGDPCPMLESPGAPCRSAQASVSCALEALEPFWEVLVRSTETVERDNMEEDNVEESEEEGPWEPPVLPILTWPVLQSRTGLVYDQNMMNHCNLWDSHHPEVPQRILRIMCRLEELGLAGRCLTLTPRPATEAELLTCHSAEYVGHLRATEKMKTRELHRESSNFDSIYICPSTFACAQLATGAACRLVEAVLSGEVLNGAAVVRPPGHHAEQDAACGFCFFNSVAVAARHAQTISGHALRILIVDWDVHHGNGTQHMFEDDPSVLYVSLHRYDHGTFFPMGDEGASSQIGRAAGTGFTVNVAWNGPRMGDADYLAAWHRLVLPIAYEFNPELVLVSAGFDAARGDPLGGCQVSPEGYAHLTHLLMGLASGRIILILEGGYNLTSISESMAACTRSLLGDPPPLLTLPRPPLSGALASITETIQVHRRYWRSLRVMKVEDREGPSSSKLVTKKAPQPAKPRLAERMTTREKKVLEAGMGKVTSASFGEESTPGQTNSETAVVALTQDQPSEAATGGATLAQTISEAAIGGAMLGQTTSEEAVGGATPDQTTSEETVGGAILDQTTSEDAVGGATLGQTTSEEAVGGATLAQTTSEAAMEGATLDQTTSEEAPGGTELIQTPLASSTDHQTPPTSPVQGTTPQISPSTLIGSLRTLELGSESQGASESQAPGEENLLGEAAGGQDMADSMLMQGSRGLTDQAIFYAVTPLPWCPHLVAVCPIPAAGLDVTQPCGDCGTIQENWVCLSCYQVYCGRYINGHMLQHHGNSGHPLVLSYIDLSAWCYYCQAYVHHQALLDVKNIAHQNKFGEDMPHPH

One may read the IC50 as the midpoint of a concentration-inhibition curve. Consider `CN(C)C1CCN(c2ccc3c(c2)C(C)(C)C(=O)N(Cc2ccc(-c4nnc(C(F)F)o4)cn2)C3=O)CC1` [Compound 37, 2-((5-(5-(difluoromethyl)-1,3,4-oxadiazole-2-yl)pyridine-2-yl)methyl)-6-(4-(dimethylamino)piperidine-1-yl)-4,4-dimethylisoquinoline-1,3(2H,4H)-dione], for which the half-inhibitory concentration (IC50) at HDAC6 human recombinant was 15 nM; on HDAC1 it was over 10000 nM.
In the same order, the values of `O=c1c2ccccc2n(Cc2ccc(-c3nnc(C(F)F)o3)cn2)c(=O)n1Cc1ccc(-c2nnc(C(F)F)o2)cn1` [Compound 78, 1,3-bis((5-(5-(difluoromethyl)-1,3,4-oxadiazole-2-yl)pyridine-2-yl)methyl)quinazoline-2,4(1H,3H)-dione] are 40 nM and over 10000 nM.
For the compound `COc1ccc(Cn2c(=O)n(Cc3ccc(-c4nnc(C(F)F)o4)cn3)c(=O)c3cc(F)ccc32)cc1` [Compound 66, 3-((5-(5-(difluoromethyl)-1,3,4-oxadiazole-2-yl)pyridine-2-yl)methyl)-6-fluoro-1-(4-methoxybenzyl)quinazoline-2,4(1H,3H)-dione], the IC50 on HDAC6 human recombinant was 216 nM; against HDAC1, over 10000 nM.
With `CN(C)CCn1c(=O)n(Cc2ccc(-c3nnc(C(F)F)o3)cn2)c(=O)c2ccccc21` [Compound 22, 3-((5-(5-(difluoromethyl)-1,3,4-oxadiazole-2-yl)pyridine-2-yl)methyl)-1-(2-(dimethylamino)ethyl)quinazoline-2,4(1H,3H)-dione], the results for the half-maximal inhibitory concentration (IC50) at HDAC6 human recombinant and against HDAC1 were 210 nM and over 10000 nM, respectively.
In the same order, the values of `CC1(C)C(=O)N(Cc2ccc(-c3nnc(C(F)F)o3)cn2)C(=O)c2cc(N3CCOCC3)ccc21` [Compound 52, 2-((5-(5-(difluoromethyl)-1,3,4-oxadiazole-2-yl)pyridine-2-yl)methyl)-4,4-dimethyl-7-morpholinoisoquinoline-1,3(2H,4H)-dione] are 40 nM and over 10000 nM.
In the same order, the values of `Cn1c(=O)n(Cc2ccc(-c3nnc(C(F)F)o3)cn2)c(=O)c2cc(F)ccc21` [Compound 70, 3-((5-(5-(difluoromethyl)-1,3,4-oxadiazole-2-yl)pyridine-2-yl)methyl)-6-fluoro-1-methylquinazoline-2,4(1H,3H)-dione] are 59 nM and over 10000 nM.
In the same order, the values of `O=C1c2ccccc2C(=O)N1Cc1ccc(-c2nnc(C(F)F)o2)cc1F` [Compound 2, 2-(4-(5-(difluoromethyl)-1,3,4-oxadiazole-2-yl)-2-fluorobenzyl)isoindoline-1,3-dione] are 561 nM and over 10000 nM.
Consider `CCCCCN1CCN(c2ccc3c(c2)C(C)(C)C(=O)N(Cc2ccc(-c4nnc(C(F)F)o4)cn2)C3=O)CC1` [Compound 45, 2-((5-(5-(difluoromethyl)-1,3,4-oxadiazole-2-yl)pyridine-2-yl)methyl)-4,4-dimethyl-6-(4-pentylpiperazine-1-yl)isoquinoline-1,3(2H,4H)-dione], for which the figures for the IC50 on HDAC6 human recombinant and on HDAC1 were 156 nM and over 10000 nM, respectively.
In the same order, the values of `CN(C)[C@@H]1CCN(c2ccc3c(c2)C(C)(C)C(=O)N(Cc2ccc(-c4nnc(C(F)F)o4)cn2)C3=O)C1` [Compound 32, (R)-2-((5-(5-(difluoromethyl)-1,3,4-oxadiazole-2-yl)pyridine-2-yl)methyl)-6-(3-(dimethylamino)pyrrolidine-1-yl)-4,4-dimethylisoquinoline-1,3(2H,4H)-dione] are 25 nM and over 10000 nM.
In the same order, the values of `O=c1c2cc(F)ccc2n(CCN2CCCCC2)c(=O)n1Cc1ccc(-c2nnc(C(F)F)o2)cn1` [Compound 71, 3-((5-(5-(difluoromethyl)-1,3,4-oxadiazole-2-yl)pyridine-2-yl)methyl)-6-fluoro-1-(2-(piperidine-1-yl)ethyl)quinazoline-2,4(1H,3H)-dione] are 150 nM and over 10000 nM.
In the same order, the values of `CC1(C)C(=O)N(Cc2ncc(-c3nnc(C(F)F)o3)cn2)C(=O)c2ccccc21` [Compound 12, 2-((5-(5-(difluoromethyl)-1,3,4-oxadiazole-2-yl)pyrimidine-2-yl)methyl)-4,4-dimethylisoquinoline-1,3(2H,4H)-dione] are 83 nM and over 10000 nM.
With `Cn1c(=O)n(Cc2ccc(-c3nnc(C(F)F)o3)cn2)c(=O)c2ccc(C3=CCNCC3)cc21` [Compound 122, 3-((5-(5-(difluoromethyl)-1,3,4-oxadiazole-2-yl)pyridine-2-yl)methyl)-1-methyl-7-(1,2,3,6-tetrahydropyridine-4-yl)quinazoline-2,4(1H,3H)-dione], the IC50 at HDAC6 human recombinant is 23 nM; against HDAC1, over 10000 nM.
Take `CC1(C)C(=O)N(Cc2ccc(-c3nnc(C(F)F)o3)cn2)C(=O)c2c(N3CCOCC3)cccc21` [Compound 83, 2-((5-(5-(difluoromethyl)-1,3,4-oxadiazole-2-yl)pyridine-2-yl)methyl)-4,4-dimethyl-8-morpholinoisoquinoline-1,3(2H,4H)-dione]: the concentration for half-maximal inhibition (IC50) on HDAC6 human recombinant was 98 nM; at HDAC1 it was over 10000 nM.
Turning to `CC1(C)C(=O)N(Cc2ccc(-c3nnc(C(F)F)o3)cn2)C(=O)c2ccc(N3CCN(c4ncccn4)CC3)cc21` [Compound 50, 2-((5-(5-(difluoromethyl)-1,3,4-oxadiazole-2-yl)pyridine-2-yl)methyl)-4,4-dimethyl-6-(4-(pyrimidine-2-yl)piperazine-1-yl)isoquinoline-1,3(2H,4H)-dione], the half-maximal inhibitory concentration (IC50) at HDAC6 human recombinant is 52 nM; at HDAC1, over 10000 nM.
As for `CC(=O)N1CCN(c2ccc3c(c2)C(C)(C)C(=O)N(Cc2ccc(-c4nnc(C(F)F)o4)cn2)C3=O)CC12CC2` [Compound 81, 6-(4-acetyl-4,7-diazaspiro[2.5]octane-7-yl)-2-((5-(5-(difluoromethyl)-1,3,4-oxadiazole-2-yl)pyridine-2-yl)methyl)-4,4-dimethylisoquinoline-1,3(2H,4H)-dione], the values for the IC50 on HDAC6 human recombinant and against HDAC1 were 11 nM and over 10000 nM, respectively.
In the same order, the values of `CC(C)N1CCN(c2ccc3c(c2)C(C)(C)C(=O)N(Cc2ccc(-c4nnc(C(F)F)o4)cn2)C3=O)CC1` [Compound 26, 2-((5-(5-(difluoromethyl)-1,3,4-oxadiazole-2-yl)pyridine-2-yl)methyl)-6-(4-isopropylpiperazine-1-yl)-4,4-dimethylisoquinoline-1,3(2H,4H)-dione] are 22 nM and over 10000 nM.
As for `COCCn1c(=O)n(Cc2ccc(-c3nnc(C(F)F)o3)cn2)c(=O)c2ccccc21` [Compound 17, 3-((5-(5-(difluoromethyl)-1,3,4-oxadiazole-2-yl)pyridine-2-yl)methyl)-1-(2-methoxyethyl)quinazoline-2,4(1H,3H)-dione], the IC50 at HDAC6 human recombinant was 165 nM; against HDAC1, over 10000 nM.
On to `Cn1c(=O)n(Cc2ccc(-c3nnc(C(F)F)o3)cn2)c(=O)c2ccc(-c3ccccc3F)cc21` [Compound 99, 3-((5-(5-(difluoromethyl)-1,3,4-oxadiazole-2-yl)pyridine-2-yl)methyl)-7-(2-fluorophenyl)-1-methylquinazoline-2,4(1H,3H)-dione], for which the values for the IC50 on HDAC6 human recombinant and at HDAC1 were 149 nM and over 10000 nM, respectively.

These data come from patent US12440484B2, “1,3,4-oxadiazole homophthalimide derivative compounds as histone deacetylase 6 inhibitor, and the pharmaceutical composition comprising the same” (Chong Kun Dang Pharmaceutical Corp., priority 2019, dated 2025).
